# Assay results as given in patent publication US9393316B2, “Cancer targeting peptides for enhancing anti-cancer drug delivery and therapeutic efficiencies” (priority 2014, dated 2016).
# Experiments:
# [1] = system: HCT116 xenografts; assay: In vivo peptide competitive inhibition of phage tumor homing; parameters: species or system mice; settings: co-injected with corresponding phage clone
# Protocol: (§1) Non-obese diabetic-severe combined immunodeficiency (NOD/SCID) mice were injected subcutaneously (s.c.) into the dorsolateral flank with 5×10^6 HCT116 cells. When the xenograft tumor size reached 300±50 mm^3, the mice were injected intravascularly (i.v.) with 2×10^11 pfu of the targeting phage or control phage M13KO7. Seven min after injection, the mice were sacrificed and perfused through the heart with 50 mL of PBS to wash unbound phages. After perfusion, xenograft tumor and mouse organs were taken out, washed three times with cold PBS, and cut into pans, with some of them homogenized. The phages bound to each tissue sample were recovered by log-phase Escherichia coli ER2738 culture and were titered on LB/IPTG/X-Gal agar plates. In peptide competitive inhibition experiments, 2×10^9 pfu of phage was co-injected with 100 μg of corresponding peptide or an unrelated control peptide.
# The tumor-homing ability of HCT63, HCT69 and HCT74 phages were further confirmed by peptide competitive inhibition experiment. Mice bearing HCT116 xenografts were co-injected with HCT63, HCT69 and HCT74 phages clones and the homologous cognate synthetic peptide; pHCT63, pHCT69 and pHCT74 peptides (SEQ ID NOs: 1-3, respectively), respectively.
# [2] = system: HCT116 cells; assay: ELISA screening of phage clones on HCT116 cells (cellular ELISA); assay type: binding, human; settings: HCT116, cell line panel
# Protocol: (§2) The selected phages were further identified by ELISA screening. 1×10^4 cells were seeded into each well of 96-well ELISA plates (Falcon, Calif., USA) overnight and were fixed with 2% paraformaldehyde or methanol/acetone (1:1) for 10 min at RT. The plates were washed twice with PBS and were blocked with 1% BSA in PBS (w/v) for 30 min at RT. Then individual phage clones were added and incubated for 1 hr at RT. Following washing three times with PBS, the plates were incubated with horseradish peroxidase (HRP)-conjugated mouse anti-M13 phage antibody (GE Healthcare) at 1:2000 dilution for 1 hr at RT. The plates were washed three times with PBS again, and were subsequently incubated with the peroxidase substrate o-phenylenediamine dihydrochloride (OPD; Sigma) plus H2O2. The reaction was terminated by 3 N HCl, and the absorbance was measured using microplate reader (Model 680, BioRad) at 490 nm.
# [3] = system: HCT116 xenografts; assay: Immunohistochemical localization of phages in xenograft tumor and organs; assay type: in vivo, mice; settings: tumor vs brain, heart, lungs, colon
# Protocol: The tissue samples from in vivo phage homing experiment were embedded in frozen blocks. To evaluate the phage distribution in each tissue by immunohistochemistry, the frozen specimens were cut to 8-μm-thick sections and were collected on coated slides. The slides were washed with cold PBS to remove OCT and were fixed with 4% paraformaldehyde for 10 min at RT. To block endogenous peroxidase activity, the slides were soaked with 3% hydrogen peroxide in methanol for 30 min at RT. The nonspecific antibody binding sites were blocked by immersing the section with 1% BSA in PBS for 30 min at RT. The tissue sections were incubated with mouse anti-M13 monoclonal antibody at 1:250 dilution for 1 hr, followed by adding Super Enhancer reagent (Super SENSITIVE™ Polymer HRP Detection System/DAB, BioGenex) for 20 min and Poly-HRP reagent (BioGenex) for 30 min. After washing, the sections were developed with DAB (3,3′-diaminobenzidine) Chromogen (BioGenex) supplemented with Stable DAB buffer. The reaction was stopped by adding PBS. For nuclei staining, the slides were immersed in hematoxylin for 5 min, and were then mounted with mounting solution to terminate the reaction. The images of sections were taken and analyzed using automated acquisition system (TissueGnostics).
# [4] = system: B16-F10; assay: Cellular ELISA of phage clones; assay type: binding, mouse
# Protocol: as §2, with “nm. To evaluate the binding activities of the three selected phage clones to various human cancer cell lines, cellular ELISA was performed to detect sixteen types of human cancer cell lines, including A498, HTB-10, B16-F10, SKOV3, PC-3, U2OS, 1112SK, […], SAS, H460, MIA Paca-2, HCT116, HUVAC, CL1-5, Mahlavu, and MDA-MB-231.” for “nm.”
# [5] = system: HCT116 xenografts; assay: In vivo tumor homing, phage titer in tumor and organs; parameters: species or system mice; settings: 2×10^11 pfu i.v., PBS perfusion; vs brain, lungs, heart
# Protocol: as §1
# To investigate the targeting ability of the selected phage clones in vivo, mice bearing HCT116 xenografts (300 mm^3) were injected with 2×10^11 pfu of either the selected phages or control phage through the tail vein. Phages were circulated and then were perfused with PBS buffer to wash out non-specific binders in circulation. After perfusion, we recovered and determined the […] of phage in tumor masses and normal organs.
# [6] = system: peripheral blood mononuclear cells (PBMC); assay: Flow cytometry binding of phage clones to normal cells; settings: human PBMC
# Protocol: (§3) Cells were grown to 70-80% confluence and were harvested with 10 mM EDTA in PBS. Peripheral blood mononuclear cells were prepared by using Ficoll-Paque Plus density gradient separation. After washing and suspending the cells with FACS buffer (PBS containing 1% fetal bovine serum), the cells were incubated for 1 hr at 4° C. with 5×10^9, 1×10^9 cfu individual phage clones or control phage, respectively. After washing twice with FACS buffer, cells were incubated with mouse anti-M13 monoclonal antibody (GE Healthcare) at 1:2000 dilution for 1 hr followed by 30 min with phycoerythrin (PE)-conjugated goat anti-mouse secondary antibody (Jackson ImmunoResearch) at 1:250 dilution at 4° C. The emission fluorescence signals were measured using FACSCantoll (Becton Dickinson) and were analyzed by FlowJo software.
# [7] = system: MIA Paca-2; assay: Cellular ELISA of phage clones; assay type: binding, human
# Protocol: as §2, with “nm. To evaluate the binding activities of the three selected phage clones to various human cancer cell lines, cellular ELISA was performed to detect sixteen types of human cancer cell lines, including A498, HTB-10, B16-F10, SKOV3, PC-3, U2OS, 1112SK, […], SAS, H460, MIA Paca-2, HCT116, HUVAC, CL1-5, Mahlavu, and MDA-MB-231.” for “nm.”
# [8] = system: HTB-10; assay: Cellular ELISA of phage clones; assay type: binding, human
# Protocol: as §2, with “nm. To evaluate the binding activities of the three selected phage clones to various human cancer cell lines, cellular ELISA was performed to detect sixteen types of human cancer cell lines, including A498, HTB-10, B16-F10, SKOV3, PC-3, U2OS, 1112SK, […], SAS, H460, MIA Paca-2, HCT116, HUVAC, CL1-5, Mahlavu, and MDA-MB-231.” for “nm.”
# [9] = system: A498; assay: Cellular ELISA of phage clones; assay type: binding, human
# Protocol: as §2, with “nm. To evaluate the binding activities of the three selected phage clones to various human cancer cell lines, cellular ELISA was performed to detect sixteen types of human cancer cell lines, including A498, HTB-10, B16-F10, SKOV3, PC-3, U2OS, 1112SK, […], SAS, H460, MIA Paca-2, HCT116, HUVAC, CL1-5, Mahlavu, and MDA-MB-231.” for “nm.”
# [10] = system: Mahlavu; assay: Cellular ELISA of phage clones; assay type: binding, human
# Protocol: as §2, with “nm. To evaluate the binding activities of the three selected phage clones to various human cancer cell lines, cellular ELISA was performed to detect sixteen types of human cancer cell lines, including A498, HTB-10, B16-F10, SKOV3, PC-3, U2OS, 1112SK, […], SAS, H460, MIA Paca-2, HCT116, HUVAC, CL1-5, Mahlavu, and MDA-MB-231.” for “nm.”
# [11] = system: H184; assay: Cellular ELISA of phage clones; assay type: binding, human
# Protocol: as §2, with “nm. To evaluate the binding activities of the three selected phage clones to various human cancer cell lines, cellular ELISA was performed to detect sixteen types of human cancer cell lines, including A498, HTB-10, B16-F10, SKOV3, PC-3, U2OS, 1112SK, […], SAS, H460, MIA Paca-2, HCT116, HUVAC, CL1-5, Mahlavu, and MDA-MB-231.” for “nm.”
# [12] = system: 1112SK; assay: Cellular ELISA of phage clones; assay type: binding, human
# Protocol: as §2, with “nm. To evaluate the binding activities of the three selected phage clones to various human cancer cell lines, cellular ELISA was performed to detect sixteen types of human cancer cell lines, including A498, HTB-10, B16-F10, SKOV3, PC-3, U2OS, 1112SK, […], SAS, H460, MIA Paca-2, HCT116, HUVAC, CL1-5, Mahlavu, and MDA-MB-231.” for “nm.”
# [13] = system: PC-3; assay: Cellular ELISA of phage clones; assay type: binding, human
# Protocol: as §2, with “nm. To evaluate the binding activities of the three selected phage clones to various human cancer cell lines, cellular ELISA was performed to detect sixteen types of human cancer cell lines, including A498, HTB-10, B16-F10, SKOV3, PC-3, U2OS, 1112SK, […], SAS, H460, MIA Paca-2, HCT116, HUVAC, CL1-5, Mahlavu, and MDA-MB-231.” for “nm.”
# [14] = system: HUVAC; assay: Cellular ELISA of phage clones; assay type: binding, human
# Protocol: as §2, with “nm. To evaluate the binding activities of the three selected phage clones to various human cancer cell lines, cellular ELISA was performed to detect sixteen types of human cancer cell lines, including A498, HTB-10, B16-F10, SKOV3, PC-3, U2OS, 1112SK, […], SAS, H460, MIA Paca-2, HCT116, HUVAC, CL1-5, Mahlavu, and MDA-MB-231.” for “nm.”
# [15] = system: CL1-5; assay: Cellular ELISA of phage clones; assay type: binding, human
# Protocol: as §2, with “nm. To evaluate the binding activities of the three selected phage clones to various human cancer cell lines, cellular ELISA was performed to detect sixteen types of human cancer cell lines, including A498, HTB-10, B16-F10, SKOV3, PC-3, U2OS, 1112SK, […], SAS, H460, MIA Paca-2, HCT116, HUVAC, CL1-5, Mahlavu, and MDA-MB-231.” for “nm.”
# [16] = system: SAS; assay: Cellular ELISA of phage clones; assay type: binding, human
# Protocol: as §2, with “nm. To evaluate the binding activities of the three selected phage clones to various human cancer cell lines, cellular ELISA was performed to detect sixteen types of human cancer cell lines, including A498, HTB-10, B16-F10, SKOV3, PC-3, U2OS, 1112SK, […], SAS, H460, MIA Paca-2, HCT116, HUVAC, CL1-5, Mahlavu, and MDA-MB-231.” for “nm.”
# [17] = system: H460; assay: Cellular ELISA of phage clones; assay type: binding, human
# Protocol: as §2, with “nm. To evaluate the binding activities of the three selected phage clones to various human cancer cell lines, cellular ELISA was performed to detect sixteen types of human cancer cell lines, including A498, HTB-10, B16-F10, SKOV3, PC-3, U2OS, 1112SK, […], SAS, H460, MIA Paca-2, HCT116, HUVAC, CL1-5, Mahlavu, and MDA-MB-231.” for “nm.”
# [18] = system: U2OS; assay: Cellular ELISA of phage clones; assay type: binding, human
# Protocol: as §2, with “nm. To evaluate the binding activities of the three selected phage clones to various human cancer cell lines, cellular ELISA was performed to detect sixteen types of human cancer cell lines, including A498, HTB-10, B16-F10, SKOV3, PC-3, U2OS, 1112SK, […], SAS, H460, MIA Paca-2, HCT116, HUVAC, CL1-5, Mahlavu, and MDA-MB-231.” for “nm.”
# [19] = system: SKOV3; assay: Cellular ELISA of phage clones; assay type: binding, human
# Protocol: as §2, with “nm. To evaluate the binding activities of the three selected phage clones to various human cancer cell lines, cellular ELISA was performed to detect sixteen types of human cancer cell lines, including A498, HTB-10, B16-F10, SKOV3, PC-3, U2OS, 1112SK, […], SAS, H460, MIA Paca-2, HCT116, HUVAC, CL1-5, Mahlavu, and MDA-MB-231.” for “nm.”
# [20] = system: MDA-MB-231; assay: Cellular ELISA of phage clones; assay type: binding, human
# Protocol: as §2, with “nm. To evaluate the binding activities of the three selected phage clones to various human cancer cell lines, cellular ELISA was performed to detect sixteen types of human cancer cell lines, including A498, HTB-10, B16-F10, SKOV3, PC-3, U2OS, 1112SK, […], SAS, H460, MIA Paca-2, HCT116, HUVAC, CL1-5, Mahlavu, and MDA-MB-231.” for “nm.”
# [21] = system: HT29; assay: Flow cytometry surface binding of phage clones; parameters: species or system human
# Protocol: as §3
# [22] = system: SW620; assay: Flow cytometry surface binding of phage clones; parameters: species or system human
# Protocol: as §3
# [23] = system: HCT116 cells; assay: Flow cytometry surface binding of phage clones; parameters: species or system human
# Protocol: as §3
# [24] = system: COLO205; assay: Flow cytometry surface binding of phage clones; parameters: species or system human
# Protocol: as §3
# [25] = system: LS174T; assay: Flow cytometry surface binding of phage clones; parameters: species or system human
# Protocol: as §3
sequence,measurement,setting,value
SSMDIVLRAPLM (HCT-74) [pHCT74],inhibition of phage recovery from tumor tissue by cognate peptide,[1],markedly inhibited the recovery of phage particles from tumor tissue
TSVSIVSTVLTP [HCT69],binding by cellular ELISA,[2],highly specific binding
same,phage localization by immunostaining of tissue sections,[3],selectively localized in tumor tissues
same,phage localization by immunostaining of tissue sections,[3]; listed as HCT-69,strong accumulated in the tumor
same,binding by cellular ELISA,[4],highly specific binding
same,phage accumulation in tumor mass vs normal organs (phage titer),[5],significantly accumulated in the tumor mass
same,binding activity to PBMC (normal cells) by FACS,[6],not to normal cells
same,binding by cellular ELISA,[7],highly specific binding
same,binding by cellular ELISA,[8],moderate binding
same,binding by cellular ELISA,[9],highly specific binding
same,binding by cellular ELISA,[10],highly specific binding
same,binding by cellular ELISA,[11],highly specific binding
same,binding by cellular ELISA,[12],highly specific binding
same,binding by cellular ELISA,[13],highly specific binding
same,binding by cellular ELISA,[14],highly specific binding
same,binding by cellular ELISA,[15],moderate binding
same,binding by cellular ELISA,[16],highly specific binding
same,binding by cellular ELISA,[17],highly specific binding
same,binding by cellular ELISA,[18],highly specific binding
same,binding by cellular ELISA,[19],highly specific binding
same,binding by cellular ELISA,[20],highly specific binding
same,binding activity by FACS,[21],high binding affinity
same,binding activity by FACS,[22],high binding affinity
same,cell surface-binding activity by flow cytometry,[23],high binding affinity
same,binding activity by FACS,[24],weak affinity
same,binding activity by FACS,[25],moderate affinity
